≈ marks a conversion by molar mass, not a printed value. Read-outs that look alike come from different tables or passages of the source. Square brackets hold non-standard residues; d marks the D form. Peptide text beside a SMILES is read from it. Nle = CCCC[C@H](N)C(=O)O; Aib = CC(C)(N)C(=O)O
How the values were obtained:
[1] = assay type: physicochemical; conditions: buffer, 168 h
Procedure: After that time course, the sample was centrifuged for 20 min at 4000 rpm and the supernatant was analysed with HPLC-UV.
For determination of the amount of the remaining peptide, the peak areas of the target compound at t0 and t7 were compared, resulting in “% remaining peptide”, following the equation % remaining peptide=[(peak area peptide t7)×100]/peak area peptide t0.
The chemical stability is expressed as “% remaining peptide”.
(§1) As HPLC/UPLC method, method D or E has been used.

[2] = Solubility testing in buffer systems, HPLC-UV of supernatant; assay type: physicochemical; conditions: buffer system
Procedure: Prior to the testing of solubility and stability of a peptide batch, its content was determined. Therefore, two parameters were investigated, its purity (HPLC-UV) and the amount of salt load of the batch (ion chromatography).
Therefore, solutions from solid samples were prepared in different buffer systems with a concentration of 1.0 mg/mL compound based on the previously determined content. HPLC-UV was performed after 2 h of gentle agitation from the supernatant, which was obtained by 20 min of centrifugation at 4000 rpm.
This analysis also served as starting point (t0) for the stability testing.
as §1

[3] = test system: female diabetic dbdb-mice; test: Glucose lowering in non-fasted female diabetic dbdb-mice; assay type: in vivo; conditions: 100 μg/kg s.c., baseline on average 29 mmol/l
Procedure: Female diabetic dbdb-mice (BKS.Cg−+Leprdb/+Leprdb/OlaHsd) 10 weeks of age at study start were used. Mice were habituated to feeding and housing conditions for at least 2 weeks. 7 days prior to study start, HbA1c were determined to allocate mice to groups, aiming to spread low, medium and high HbA1c-values and in consequence the group-means (n=8), as equally as possible. On the day of study, food was removed, directly before sampling for baseline glucose assessment (t=0 min). Immediately afterwards, compounds or vehicle (phosphor buffered saline, PBS) were administered subcutaneously, 100 μg/kg, 10 ml/kg. Afterwards, blood samples were drawn by tail tip incision at 15, 30, 60, 90, 120, 150, 180, 240, 360, 480 min and 24 h. Food was re-offered after the 480 min-sampling.
Data were analysed by 2-W-ANOVA on repeated measurements, followed by Dunnett's test as post-hoc assessment, level of significance p<0.05.
Female dbdb-mice, received 100 μg/kg of SEQ ID NO: 8, SEQ ID NO: 9 or phosphate buffered saline (vehicle control) subcutaneously, at time 0 min.

[4] = Pharmacokinetic testing in mice, plasma LC/MS; assay type: in vivo; conditions: mouse, sc, 1 mg/kg s.c.
Procedure: Mice were dosed 1 mg/kg subcutaneously (s.c.). The mice were sacrified and blood samples were collected after 0.25, 0.5, 1, 2, 4, 8, 16 and 24 hours post application. Plasma samples were analyzed after protein precipitation via liquid chromatography mass spectrometry (LC/MS). PK parameters and half-life were calculated using WinonLin Version 5.2.1 (non-compartment model).
Pharmacokinetic profiles were determined as described in Methods.

[5] = target: T1, human glucagon receptor (hGLUC R) (Homo sapiens, UniProt P47871); test: cAMP response of HEK-293 cells stably expressing human glucagon receptor (HTRF); assay type: cell-based; conditions: Table 6; cAMP formation
T1 construct: expressed in transfected cells
T1 sequence (P47871 26-477): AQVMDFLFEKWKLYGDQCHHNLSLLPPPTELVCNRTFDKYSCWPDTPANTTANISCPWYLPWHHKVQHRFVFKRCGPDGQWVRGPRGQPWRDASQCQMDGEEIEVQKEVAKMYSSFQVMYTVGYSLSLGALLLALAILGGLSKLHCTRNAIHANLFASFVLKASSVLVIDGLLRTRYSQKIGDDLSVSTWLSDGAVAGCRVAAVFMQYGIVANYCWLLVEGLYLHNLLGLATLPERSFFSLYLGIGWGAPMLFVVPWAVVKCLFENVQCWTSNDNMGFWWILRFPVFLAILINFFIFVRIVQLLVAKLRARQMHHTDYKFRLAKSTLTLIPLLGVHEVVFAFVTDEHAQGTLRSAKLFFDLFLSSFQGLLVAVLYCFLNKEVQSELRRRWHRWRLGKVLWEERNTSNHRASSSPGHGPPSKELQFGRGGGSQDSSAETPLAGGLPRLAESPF
Procedure: cAMP content of cells was determined using a kit from Cisbio Corp. (cat. no. 62AM4PEC) based on HTRF (Homogenous Time Resolved Fluorescence). For preparation, cells were split into T175 culture flasks and grown overnight to near confluency in medium (DMEM/10% FBS). Medium was then removed and cells washed with PBS lacking calcium and magnesium, followed by proteinase treatment with accutase (Sigma-Aldrich cat. no. A6964). Detached cells were washed and resuspended in assay buffer (1×HBSS; 20 mM HEPES, 0.1% BSA, 2 mM IBMX) and cellular density determined. They were then diluted to 400000 cells/ml and 25 μl-aliquots dispensed into the wells of 96-well plates. For measurement, 25 μl of test compound in assay buffer was added to the wells, followed by incubation for 30 minutes at room temperature.

[6] = pH 4.5, target concentration 1.0 mg/mL, read-out: Solubility (pH 4.5)
[7] = pH 7.4, target concentration 1.0 mg/mL, read-out: Solubility (pH 7.4)

| Compound | Stability (pH 4.5), % remaining peptide [1] | Stability (pH 7.4), % remaining peptide [1] | solubility at 2 h [2, 6] | solubility at 2 h [2, 7] | maximal effect, glucose reduction [3] | Cmax [4] | half-life [4] | EC50 [5] |
| --- | --- | --- | --- | --- | --- | --- | --- | --- |
| CC[C@H](C)[C@H](NC(=O)[C@H](CO)NC(=O)[C@H](CC(C)C)NC(=O)[C@H](CC(=O)O)NC(=O)[C@H](CO)NC(=O)[C@@H](NC(=O)[C@H](Cc1ccccc1)NC(=O)[C@@H](NC(=O)CNC(=O)[C@H](CCC(=O)O)NC(=O)C(C)(C)NC(=O)[C@@H](N)Cc1ccc(O)cc1)[C@@H](C)O)[C@@H](C)O)C(=O)N[C@@H](CCC(N)=O)C(=O)N[C@@H](CCSC)C(=O)N[C@@H](CCC(=O)O)C(=O)N[C@@H](CCCCN)C(=O)N[C@@H](CCCNC(=N)N)C(=O)N[C@@H](C)C(=O)N[C@@H](C)C(=O)NC(C)(C)C(=O)N[C@@H](CCC(=O)O)C(=O)N[C@@H](Cc1ccccc1)C(=O)N[C@H](C(=O)N[C@@H](CCC(=O)O)C(=O)N[C@@H](Cc1c[nH]c2ccccc12)C(=O)N[C@@H](CC(C)C)C(=O)N[C@@H](CCCCN)C(=O)N[C@@H](C)C(=O)NCC(=O)NCC(=O)N1CCC[C@H]1C(=O)N[C@@H](CO)C(=O)N[C@@H](CO)C(=O)NCC(=O)N[C@@H](C)C(=O)N1CCC[C@H]1C(=O)N1CCC[C@H]1C(=O)N1CCC[C@H]1C(=O)N[C@@H](CO)C(N)=O)[C@@H](C)CC [SEQ ID NO: 8, Y-Aib-E-G-T-F-T-S-D-L-S-I-Q-M-E-K-R-A-A-Aib-E-F-I-E-W-L-K-A-G-G-P-S-S-G-A-P-P-P-S-NH2] (H-Y[Aib]EGTFTSDLSIQMEKRAA[Aib]EFIEWLKAGGPSSGAPPPS-NH2) | 99% | 92% | > 1000 µg/mL | > 1000 µg/mL | ~12 mmol/L | 734 ng/mL | 18 min | > 1000 nM |
| CC[C@H](C)[C@H](NC(=O)[C@H](CO)NC(=O)[C@H](CC(C)C)NC(=O)[C@H](CC(=O)O)NC(=O)[C@H](CO)NC(=O)[C@@H](NC(=O)[C@H](Cc1ccccc1)NC(=O)[C@@H](NC(=O)CNC(=O)[C@H](CCC(=O)O)NC(=O)C(C)(C)NC(=O)[C@@H](N)Cc1ccc(O)cc1)[C@@H](C)O)[C@@H](C)O)C(=O)N[C@@H](CCC(N)=O)C(=O)N[C@@H](CC(C)C)C(=O)N[C@@H](CCC(=O)O)C(=O)N[C@@H](CCCCN)C(=O)N[C@@H](CCCNC(=N)N)C(=O)N[C@@H](C)C(=O)N[C@@H](C)C(=O)NC(C)(C)C(=O)N[C@@H](CCC(=O)O)C(=O)N[C@@H](Cc1ccccc1)C(=O)N[C@H](C(=O)N[C@@H](CCC(=O)O)C(=O)N[C@@H](Cc1c[nH]c2ccccc12)C(=O)N[C@@H](CC(C)C)C(=O)N[C@@H](CCCCN)C(=O)N[C@@H](C)C(=O)NCC(=O)NCC(=O)N1CCC[C@H]1C(=O)N[C@@H](CO)C(=O)N[C@@H](CO)C(=O)NCC(=O)N[C@@H](C)C(=O)N1CCC[C@H]1C(=O)N1CCC[C@H]1C(=O)N1CCC[C@H]1C(=O)N[C@@H](CO)C(N)=O)[C@@H](C)CC [SEQ ID NO: 9, Y-Aib-E-G-T-F-T-S-D-L-S-I-Q-L-E-K-R-A-A-Aib-EFIEWLKAGGPSSGAPPPSN H2] (H-Y[Aib]EGTFTSDLSIQLEKRAA[Aib]EFIEWLKAGGPSSGAPPPS-NH2) | 100% | 100% | 875 µg/mL (≈ 213 µM) | 892 µg/mL (≈ 217 µM) | ~16 mmol/L | – | – | – |
| CCCC[C@H](NC(=O)[C@H](CCC(N)=O)NC(=O)[C@@H](NC(=O)[C@H](CO)NC(=O)[C@H](CC(C)C)NC(=O)[C@H](CC(=O)O)NC(=O)[C@H](CO)NC(=O)[C@@H](NC(=O)[C@H](Cc1ccccc1)NC(=O)[C@@H](NC(=O)CNC(=O)[C@H](CCC(=O)O)NC(=O)C(C)(C)NC(=O)[C@@H](N)Cc1ccc(O)cc1)[C@@H](C)O)[C@@H](C)O)[C@@H](C)CC)C(=O)N[C@@H](CCC(=O)O)C(=O)N[C@@H](CCCCN)C(=O)N[C@@H](CCCNC(=N)N)C(=O)N[C@@H](C)C(=O)N[C@@H](C)C(=O)NC(C)(C)C(=O)N[C@@H](CCC(=O)O)C(=O)N[C@@H](Cc1ccccc1)C(=O)N[C@H](C(=O)N[C@@H](CCC(=O)O)C(=O)N[C@@H](Cc1c[nH]c2ccccc12)C(=O)N[C@@H](CC(C)C)C(=O)N[C@@H](CCCCN)C(=O)N[C@@H](C)C(=O)NCC(=O)NCC(=O)N1CCC[C@H]1C(=O)N[C@@H](CO)C(=O)N[C@@H](CO)C(=O)NCC(=O)N[C@@H](C)C(=O)N1CCC[C@H]1C(=O)N1CCC[C@H]1C(=O)N1CCC[C@H]1C(=O)N[C@@H](CO)C(N)=O)[C@@H](C)CC [SEQ ID NO: 10, Y-Aib-E-G-T-F-T-S-D-L-S-I-Q-Nle-E-K-R-A-A-Aib-E-F-I-E-W-L-K-A-G-G-P-S-S-G-A-P-P-P-S-NH2] (H-Y[Aib]EGTFTSDLSIQ[Nle]EKRAA[Aib]EFIEWLKAGGPSSGAPPPS-NH2) | 100% | 100% | 960 µg/mL (≈ 234 µM) | > 1000 µg/mL | – | – | – | – |
